Laboratory results: US20210198277A1, “AMINE-SUBSTITUTED ARYL OR HETEROARYL COMPOUNDS” (Epizyme, Inc., priority 2016, published 2021)

target: T1, EHMT2 (Homo sapiens, UniProt Q96KQ7); test: MDA-MB-231 H3K9me2 in-cell Western assay (EHMT2 ICW); type: cell-based; details: Table II; MDA-MB-231 H3K9me2 in-cell Western; read-out: EHMT2 ICW (IC50 μM)
T1 construct: host or cells: MDA-MB-231
T1 sequence (Q96KQ7 1-1210): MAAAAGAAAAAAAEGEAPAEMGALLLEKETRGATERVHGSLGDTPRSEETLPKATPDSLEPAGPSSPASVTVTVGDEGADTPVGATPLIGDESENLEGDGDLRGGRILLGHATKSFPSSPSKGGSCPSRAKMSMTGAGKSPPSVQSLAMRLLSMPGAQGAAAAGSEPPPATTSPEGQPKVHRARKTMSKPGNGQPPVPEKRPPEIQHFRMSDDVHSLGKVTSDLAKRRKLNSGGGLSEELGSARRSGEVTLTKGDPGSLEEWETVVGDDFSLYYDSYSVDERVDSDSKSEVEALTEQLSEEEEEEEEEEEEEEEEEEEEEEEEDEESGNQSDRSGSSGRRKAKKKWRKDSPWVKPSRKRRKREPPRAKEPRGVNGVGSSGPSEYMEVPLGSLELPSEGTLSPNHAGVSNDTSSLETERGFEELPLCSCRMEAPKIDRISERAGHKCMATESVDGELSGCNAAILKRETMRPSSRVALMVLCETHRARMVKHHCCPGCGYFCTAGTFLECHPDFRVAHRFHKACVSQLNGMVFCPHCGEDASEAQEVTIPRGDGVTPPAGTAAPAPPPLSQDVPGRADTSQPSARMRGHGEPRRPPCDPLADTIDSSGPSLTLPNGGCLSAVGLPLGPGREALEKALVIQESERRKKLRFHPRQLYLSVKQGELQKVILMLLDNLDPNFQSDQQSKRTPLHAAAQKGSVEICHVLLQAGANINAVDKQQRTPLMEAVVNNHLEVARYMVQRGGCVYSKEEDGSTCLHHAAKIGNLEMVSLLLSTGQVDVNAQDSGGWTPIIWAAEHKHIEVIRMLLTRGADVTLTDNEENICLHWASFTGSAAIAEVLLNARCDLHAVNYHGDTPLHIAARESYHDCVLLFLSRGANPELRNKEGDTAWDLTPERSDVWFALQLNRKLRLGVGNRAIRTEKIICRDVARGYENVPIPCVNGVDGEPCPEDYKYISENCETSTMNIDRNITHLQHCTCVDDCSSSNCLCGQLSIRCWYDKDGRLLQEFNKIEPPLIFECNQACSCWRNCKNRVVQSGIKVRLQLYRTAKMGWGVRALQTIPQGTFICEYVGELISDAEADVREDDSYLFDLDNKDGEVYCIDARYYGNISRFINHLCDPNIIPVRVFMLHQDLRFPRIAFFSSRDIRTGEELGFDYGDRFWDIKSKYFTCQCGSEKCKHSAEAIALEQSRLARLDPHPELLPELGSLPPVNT
Outline: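 MDA-MB-231 cells (3,000/well) were exposed to compound for 30 min at room temperature and then 48 h at 37 °C, fixed with paraformaldehyde, and stained with anti-H3K9me2 (800 nm) plus DRAQ5 (700 nm). Per-well channel ratios gave percent inhibition, and IC50 came from a four-parameter fit of triplicate wells.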

IC50 | Compound
1 to 10 µM | COc1ccc(Nc2nccc(N3Cc4cn[nH]c4C3)n2)cc1OCCCN1CCCC1 [Compound 53]
1 to 10 µM | COc1ccc(Nc2nccc(NC3CCN(C(C)=O)CC3)n2)cc1OCCCN1CCCC1 [Compound 54]
1 to 10 µM | COc1ccc(Nc2ncc(C)c(NCC3CCN(C(C)=O)CC3)n2)cc1OCCCN1CCCC1 [Compound 55]
0.1 to 1 µM | COc1ccc(Nc2nccc(NCC3CCN(CC(F)F)CC3)n2)cc1OCCCN1CCCC1 [Compound 2, N^4-((1-(2,2-difluoroethyl)piperidin-4-yl)methyl)-N^2-(4-methoxy-3-(3-(pyrrolidin-1-yl)propoxy)phenyl)pyrimidine-2,4-diamine]
1 to 10 µM | c1cc(Nc2nccc(NCC3CCNCC3)n2)cc(OCCCN2CCCC2)c1 [Compound 88]
1 to 10 µM | COc1ccc(Nc2nccc(NCC3CCN(C(C)=O)CC3)n2)cc1COCCN1CC(F)C1 [Compound 57]

same assay, conditions: Table III; MDA-MB-231 H3K9me2 in-cell Western; read-out: EHMT2 ICW (IC50 μM)

IC50 | Compound
> 10 µM | CNc1ccnc(Nc2ccc3c(c2)C(=O)N(CCN2CCCC2)CC3)n1 [Compound 264, 7-((4-(methylamino)pyrimidin-2-yl)amino)-2-(2-(pyrrolidin-1-yl)ethyl)-3,4-dihydroisoquinolin-1(2H)-one]
> 10 µM | CNc1cnnc(Nc2ccc(OC)c(OCCCN3CCCC3)c2)c1 [Compound 370]
0.1 to 1 µM | CNc1ccnc(Nc2ccc(OC)c(OCCCN3CCCCC3)c2)n1 [Compound 390]
1 to 10 µM | CNc1ccnc(Nc2ccc(OC)c(OCC3CCN(CC4CC4)C3)c2)n1 (centres unmarked) [Compound 422, N^2-(3-((1-(cyclopropylmethyl)pyrrolidin-3-yl)methoxy)-4-methoxyphenyl)-N^4-methylpyrimidine-2,4-diamine]
1 to 10 µM | CNc1ccnc(Nc2ccc(OC)c(OC[C@H](O)CN3CCCC3)c2)n1 (single isomer, unassigned) [Compound 376]
1 to 10 µM | COc1ccc(Nc2nccc3[nH]ccc23)cc1OCCCN1CCCC1 [Compound 266, N-(4-methoxy-3-(3-(pyrrolidin-1-yl)propoxy)phenyl)-1H-pyrrolo[3,2-c]pyridin-4-amine]
0.1 to 1 µM | CNc1ccnc(Nc2ccc(OC)c(OCC3CCN(C)C3)c2)n1 (single isomer, unassigned) [Compound 416]
> 10 µM | CNc1ccnc(Nc2ccc(OC)c(OCC3CCN(CCOC)C3)c2)n1 (centres unmarked) [Compound 410, N^2-(4-methoxy-3-((1-(2-methoxyethyl)pyrrolidin-3-yl)methoxy)phenyl)-N^4-methylpyrimidine-2,4-diamine]
> 10 µM | COc1ccc(Nc2nccc3[nH]ncc23)cc1OCCCN1CCCC1 [Compound 373]
> 10 µM | CNc1ccnc(Nc2cccc(N3CCC(N(C)C)C3)c2)n1 (centres unmarked) [Compound 397]
> 10 µM | CNc1cncc(Nc2ccc(OC)c(OCCCN3CCCC3)c2)n1 [Compound 371]
> 10 µM | CNc1ccnc(Nc2ccc(OC)c(OC[C@@H](O)CN3CCCC3)c2)n1 (single isomer, unassigned) [Compound 377]
> 10 µM | CCNC(=O)c1cc(Nc2nccc(NC)n2)ccc1OC [Compound 395]
> 10 µM | COc1ccc(Nc2cnnc(NCC3CCN(C(C)=O)CC3)c2)cc1OCCCN1CCCC1 [Compound 366]
> 10 µM | CCNC(=O)c1cccc(Nc2nccc(NC)n2)c1 [Compound 394]
1 to 10 µM | CNc1ccnc(Nc2ccc(OC)c(OCC3CCCN(C)C3)c2)n1 (centres unmarked) [Compound 412, N^2-(4-methoxy-3-((1-methylpiperidin-3-yl)methoxy)phenyl)-N^4-methylpyrimidine-2,4-diamine]
1 to 10 µM | CCCN1CCC(COc2cc(Nc3nccc(NC)n3)ccc2OC)C1 (centres unmarked) [Compound 420, N^2-(4-methoxy-3-((1-propylpyrrolidin-3-yl)methoxy)phenyl)-N^4-methylpyrimidine-2,4-diamine]
< 0.1 µM | CNc1cc(C)nc(Nc2ccc(OC)c(OCC3CCN(C)C3)c2)n1 (single isomer, unassigned) [Compound 418]
> 10 µM | CNc1ccnc(Nc2cccc(COCCN3CCCC3)c2)n1 [Compound 383]
1 to 10 µM | CNc1cc(C)nc(Nc2cccc(OCCCN3CCCC3)c2)n1 [Compound 391]
